Experimental data taken from patent US8741357B2, “Cosmetic or dermopharmaceutical composition comprising an euglena extract” (Sederma SAS, priority 2005, dated 2014).

Tested on: Human keratinocytes
Assay: de novo IP3 synthesis in KHN cells (RIA)
Assay type: cell-based
Description: The IP3 produced by the cell is extracted with perchloric acid and assay is conducted by a RIA method based on competition for a specific IP3 binding protein between radioactive IP3 and cell extract IP3. The intracellular IP3 is assayed after stimulation with the extract of Euglena, vs.control. The positive control consists in Platelet-Activating Factor (PAF).
Human keratinocytes were cultured and incubated to 90% confluence. The cells were incubated in the presence of extract of euglena at various concentrations or the control for 1 minute.

**Q.** How did the IP3 (positive control, mean of n = 3) turn out when Platelet-Activating Factor [PAF] was run?
**A.** 17.48 pmol/mL

**Q.** And the “Variation of IP3” value (positive control, relative to control)?
**A.** 515

**Q.** And the “IP3 production, result in words” value (vs control)?
**A.** stimulated IP3 production
